Assay results as given in patent US8207167B2, “Aryl-phenyl-sulfonamide-phenylene compounds and their use” (PIMCO 2664 Limited, priority 2008, dated 2012).
Read-outs that look alike come from different tables or passages of the source.

How the values were obtained:
[1] = In vivo pharmacokinetics in rat, oral and intravenous; set-up: species or system Sprague-Dawley rats; conditions: 1 mg/kg
Protocol: Absorption and metabolic stability were studied using an in vivo pharmacokinetics assay. Drug levels were assessed using ultra-performance LC/TOF-MS.
Three male Sprague-Dawley rats, 200-300 g, were dosed per route. […] Test compound was formulated in 50:50 tetraethylene glycol:PBS for both routes. Animals were given free access to food throughout the study. On the day prior to dosing, the carotid artery was cannulated for sample collection and for the intravenous study, the jugular vein was cannulated to enable dosing.
Blood samples were taken from the carotid artery at the following time points and placed in heparinised tubes:
Oral dosing—predose, 0.25, 0.5, 1, 2, 4, 8 and 24 hours post dose.
IV dosing—predose, 0.08, 0.25, 0.5, 1, 2, 4 and 8 hours post dose.
Blood samples were centrifuged to obtain plasma, which was transferred to a separate container and frozen at −20° C.
Samples were thawed at room temperature and prepared by protein precipitation with acetonitrile in the ratio 1:2 with plasma, followed by centrifugation for 10 minutes at 16,100×g (Eppendorf 5415D, Eppendorf AG, Hamburg, Germany). The supernatants were collected for analysis. The standard samples were prepared similarly, after spiking blank rat plasma samples to study compound concentrations at 1, 2, 5, 10, 20, 50, 100, 200, 500 and 1000 ng/mL. In addition, extra samples were prepared from 0-1 hour i.v. samples by diluting 1/20 with 50% aqueous acetonitrile to avoid exceeding the linear range of the analytical method.
A Waters Acquity liquid ultra-performance chromatographic system (Waters Corp., Milford, Mass., USA) with autosampler, vacuum degasser and column oven was used. The analytical column used for all compounds was a Waters BEH C18, (2.1×50 mm, 1.7 μm, Waters Corp, Milford, Mass., USA) together with a 0.2 μm on-line filter before the column. The eluents were 0.1% acetic acid (A, pH 3.2) and methanol (B). Gradient elution from 5% to 60% B in two minutes was employed, followed by one minute gradient to 90% B and column equilibration. The flow rate was 0.5 mL/min and the column oven temperature was 35° C. The flow was directed to the MS via Water Acquity photo-diode-array (PDA) detector. LC/TOF-MS data were recorded with a Micromass LCT Premier XE time-of-flight (TOF) mass spectrometer (Micromass Ltd., Manchester, England) equipped with a LockSpray electrospray ionization source. A positive ionization mode of electrospray was used for all compounds. The mass range of m/z 100-900 was acquired. The W-option of the reflector was used, and the DRE (dynamic range enhancement) option was set to on. The mass spectrometer and HPLC system were operated under Micromass MassLynx 4.1 software. Leucine enkephalin ([M+H]^+ m/z 556.2771) was used as a lock mass compound for accurate mass measurements and was delivered into the LockSpray probe with a syringe pump. MassLynx 4.1 software was used for controlling the instrumentation and for data processing.
The pharmacokinetic parameters for the test compounds were calculated by WinNonlin Pro (Pharsight Corp, CA) using standard noncompartmental methods. The elimination phase half-life (t1/2) was calculated by least-squares regression analysis of the terminal linear part of the log concentration−time curve. The area under the plasma concentration−time curve (AUC) was determined by use of the linear trapezoidal rule up to the last measurable concentration and thereafter by extrapolation of the terminal elimination phase to infinity. The tentative oral bioavailability (F) was calculated by dividing the AUC (0-24 hours) after p.o. administration by the AUC (0-8 hours) after i.v. administration, i.e., F=AUC(p.o.)/AUC(i.v), and reported as percentages (%).

J774 macrophages = test: Alamar Blue macrophage J774 viability assay; assay type: cell-based; conditions: Mus musculus, 72 hours culture with compound, Alamar Blue read-out
Protocol: Initial screening of candidate compounds was performed using in vitro assays to determine potency, metabolic stability and solubility in biologically relevant fluids. Potency was assessed using a viability assay based on the survival of the J774 macrophage cell line. Macrophages are closely related to osteoclasts and have been used previously as a model system for osteoclast survival (see, e.g., Luckman et al., 1998). Like osteoclasts, J774 macrophages are dependent on continued NFκB activation for survival, thereby providing a valuable screen for compounds with anti-inflammatory activity. Metabolic stability was measured by determining the rate of disappearance of compound in the presence of human liver microsomal preparations, as quantified by LC-MS/MS. Solubility was measured by equilibration of the compound in fasted state simulated intestinal fluid (FaSSIF) and quantified by HPLC.
In vitro potency as anti-inflammatory agents was determined for a number of APSAP compounds by incubation with J774 macrophages and subsequent determination of cell viability.
J774 cells were plated at 10^4 cells per well in 100 μL αMEM (α Modified Eagle Medium) in 96-well plates and grown overnight. The next day, test compounds were added to the cultures, and cultures were continued for another 72 hours. At the end of the culture period, cell survival was determined using an Alamar Blue assay as previously described (see, e.g., Nociari et al., 1998).
Alamar Blue is an oxidation-reduction sensitive indicator. The dye itself is in the oxidised state, which is blue and non-fluorescent. The dye can accept electrons from reducing species, such as NADPH and FADH, to form a reduced dye species, which is red and fluorescent. Thus the transformation from oxidised form to reduced form can be measured by fluorimetric or colourimetric means. For fluorescence measurements, 530-560 nm excitation and 590 nm emission wavelengths are typically used. For colourimetric measurements, absorbance at 570 nm (reduced form) and 600 nm (oxidised form) is typically measured. A simple calculation is performed to determine the relative quantities of the two species.
A high ratio of the reducing species, NADPH and FADH, to the corresponding oxidised species, NADP and FAD, is an indicator that cells are proliferating and viable. A low ratio indicates cells that are quiescent or non-viable.
Briefly, Alamar Blue (Biosource International) was added undiluted to each well (1:10 v/v, 10 μL). The plate was incubated at 37° C. for 3-4 hours and the fluorescence was measured at 590 nm, with a 25 nm bandwidth. A high reading indicated cells with normal viability, and a low reading indicated cells that have been damaged and are no longer proliferating normally. The controls gave a high fluorescence reading, indicating a high number of live, healthy cells. A potent test compound gave a low fluorescence reading.
The average results for each test compound (n=5) were expressed as a percent (%) of the average control value.
Addition of Compounds. All of the compounds studied were made up as 100 mM solutions in DMSO. These stock solutions were then diluted 1000-10000× in culture medium (αMEM). From these 100 μM or 10 μM solutions, convenient quantities (3-33 μL) were added directly to the wells so as to give the desired final compound concentration.

- AUC ([1]; i.v.): 11900 ng/mL/min
- half-life ([1]; male, Sprague-Dawley, plasma, iv, i.v., read-out: T½ (converted)): 48.6 min
- bioavailability ([1]; male, Sprague-Dawley, plasma, oral, read-out: Bioavailability F %): 38%
- half-life ([1]; male, Sprague-Dawley, plasma, po, following oral administration, read-out: extended half life (converted)): 460 min
- half-life ([1]; male, Sprague-Dawley, plasma, po, p.o., read-out: T½ (converted)): 190 min
- AUC ([1]; p.o.): 1500 ng/mL/min
Structure (SMILES): CNC(CO)c1cccc(NS(=O)(=O)c2ccc(-c3ccc(F)cc3F)cc2)c1 (stereo not shown) [ABD789, 2′,4′-Difluoro-N-(3-(2-hydroxy-1-(methylamino)ethyl)phenyl)biphenyl-4-sulfonamide]
- IC50 (J774 macrophages): 140 nM
